Source: US10111893B2, “Calmangafodipir, a new chemical entity, and other mixed metal complexes, methods of preparation, compositions, and methods of treatment” (priority 2012, dated 2018)
Like-named read-outs stand apart in the source and are kept apart here.

Columns and labels:
[1] = test system: white blood cells (WBC), lymphocytes (LYM), neutrophils (NEU); experiment: Myelosuppressive effects of carboplatin in balb/c mice, cytoprotection; type: in vivo; settings: carboplatin 125 mg/kg alone, 3 days after
Source text: A control group received vehicle (saline) and saline instead of carboplatin.

CT26 tumors = experiment: Antitumor activity of oxaliplatin with or without calmangafodipir in CT26-bearing mice; type: in vivo, balb/c mice; settings: single treatment 20 mg/kg oxaliplatin i.p., day 10
Procedure: When the cells reached ˜50% confluency they were harvested by trypsinization. Briefly, cells were washed with phosphate based saline (PBS) (pH 7.3) and exposed to 0.05% Trypsin/0.53 mM EDTA at 37° C. for ˜5 min. The trypsinization was stopped by adding RPMI1640 culture medium. Cells were counted and centrifuged at 200×g for 5 min. Thereafter, they were washed in PBS, centrifuged again and resuspended in PBS at a concentration of 2×10^6/350 μl for injection into mice. Balb/c female mice between 6 and 8 weeks of age were used, as described by Laurent et al., 2005. Briefly, each mouse was injected subcutaneously in the back of the neck with 2×10^6 of CT26 cells at day 0. After 7 days (day 7) when the tumors were detectable, the tumor size was determined with a caliper and mice were grouped (5 in each group) so that the sizes of the tumors were not statistically different by group. Oxaliplatin±calmangafodipir (lot #11AK0105B) was injected and one group of mice received vehicle (0.9% saline+5% glucose) treatment alone. In a first series of experiments, mice were injected i.v. with saline or 50 mg/kg calmangafodipir 30 minutes prior to i.p. administration of 20 mg/kg oxaliplatin (diluted in 5% glucose) or 5% glucose. These mice received in addition saline or 50mg/kg calmangafodipir 24 hours later (day 8). In another series of experiments, mice were injected i.v. with saline or 5 mg/kg calmangafodipir 30 minutes […] (diluted in 5% glucose) or 5% glucose, and saline or 5 mg/kg calmangafodipir 24 hours later (day 8). The mice were killed on day 10 and the tumors were excised and wet weights were determined.

white blood cells (WBC) = experiment: Myelosuppressive effects of oxaliplatin in balb/c mice, cytoprotection
Procedure: One day before (baseline) as well as 3 and 6 days after oxaliplatin treatment 50 μl EDTA blood samples were taken from the orbital venous plexus with a glass capillary. The blood samples were analyzed using the automated system CELL-DYN® Emerald (Abbott Diagnostics) for the content of white blood cells (WBC), lymphocytes (LYM), neutrophils (NEU) and platelets (PLC). […] A control group received instead of oxaliplatin vehicle (5% glucose) and saline. […] The statistical differences between treatment groups, where appropriate, were tested by an unpaired Student's t-test. A p-value lower than 0.05 was considered as a statistically significant difference.

[2] = test system: CT26 (mouse colon carcinoma) cells; experiment: MTT viability assay, cytotoxic activity; settings: 48 h, 1-1,000 μM
Procedure: The viability of cells was measured using the MTT assay. […] The viability of the cells was then assessed by adding 5 mg/ml methylthiazoletetrazolium (MTT) to a final concentration of 0.5 mg/ml and incubating cells for a further 4 h at 37° C. The blue formazan that is formed by mitochondrial dehydrogenases of viable cells was then dissolved over night at 37° C. by adding 10% SDS and 10 mM HCl to a final concentration of 5% SDS and 5 mM HCl. Finally, the absorbance of the solution was read at 570 nm with a reference at 670 nm in a microplate reader Spectramax 340 (Molecular Devices, Sunnyvale, Calif., USA) connected to an Apple Macintosh computer running the program Softmax Pro V1.2.0 (Molecular Devices, Sunnyvale, Calif., USA).

[3] = one patient, cited from earlier work
[4] = Mn content of brain, pancreas and liver after repeated intravenous injections; settings: rats, 39 iv doses, 72 μmol/kg manganese each, 3 times a week for 13 weeks
Procedure: After the 13-week administration period, the rats were sacrificed and the brains and pancreas were dissected out and approximately 0.5 g samples were stored frozen until Mn analysis. The Mn content of each sample was analyzed by ICP-MS. Results are expressed as μg/g wet weight±S.E.M. Statistical difference between the mangafodipir group and the calmangafodipir group, with respect to Mn content, was tested by a paired Student's t-test. A p-value lower than 0.05 was considered as a statistically significant difference.

[5] = rats; cited from earlier work
[6] = humans, diagnostic MR imaging dose iv; cited from earlier work
[7] = rats, single 5 μmol/kg b.w., cited from earlier work
pig heart = settings: pigs; cited from earlier work
human U1810 NSCLC cells = experiment: MTT viability assay, cytotoxic activity; type: cell-based; settings: 48 h, MTT, read-out: IC50 (concentration causing 50% inhibition of viability)
Procedure: The viability of U1810 or LLC1 cells in the presence of increasing concentrations of calmangafodipir or mangafodipir is presented as concentration response curves (mean±S.D.). The individual curves were fitted to the sigmoidal variable slope response logistic equation (Graphpad Prism, version 5.02). From this analysis the concentrations causing 50% inhibition (IC50) of the test substances were calculated.

[8] = Manganese urine excretion 0-24 h after intravenous injection; settings: rats
Procedure: To obtain basal content of manganese (Mn) and zinc (Zn) in urine, two additional (control) rats received 0.25 ml saline and were placed in metabolic cages for urine collection over the same period of time. The urine samples were then stored at −80° C. until Mn analysis. Before analysis, the samples were thawed and extensively shaken to obtain homogenous samples. A five ml aliquot was taken from each sample and 5 ml concentrated nitric acid was added. The samples were then resolved in a microwave oven and thereafter diluted with distilled water to a final volume of 50 ml. The Mn content of each sample was analyzed by ICP-MS (Inductively Coupled Plasma Mass Spectrometry). Identical samples of calmangafodipir and mangafodipir as those injected in the rats (i.e., 0.25 ml) were withdrawn and injected into test tubes. These samples were treated in an identical manner to that of the urine samples and analyzed for their Mn content. Results are presented as total 0-24 h urine Mn content (expressed as μmol/kg±S.E.M.) and as percentage (±S.E.M.) of the injected dose. […] A p-value lower than 0.05 was considered as a statistically significant difference.

[9] = cited from earlier work

## N.N.O=C([O-])C1(C(=O)[O-])CCC1.[Pt+2] [Carboplatin, carboplatin]
[1]
  decrease in WBC, as well as in NEU and LYM: approximately 50%

## O=C1[O][Pt]2([NH][C@@H]3CCCC[C@H]3[NH]2)[O]C1=O [oxaliplatin]
CT26 tumors
  reduction in tumor weight: more than 50%
White blood cells (WBC); single dose 12.5 mg/kg oxaliplatin alone, 6 days after
  fall in WBC: more than 80%

## [Ca+2].[Cl-].[Cl-] [CaCl2]
[2]
  cytotoxic activity: Neither ZnDPDP, ZnPLED nor CaCl2 displayed any cytotoxic activity at all

## Cc1ncc(COP(=O)(O)O)c(CN(CCN(CC(=O)O)Cc2c(COP(=O)(O)O)cnc(C)c2O)CC(=O)O)c1O.[Mn] [mangafodipir, manganese N,N′-bis-(pyridoxal-5-phosphate)-ethylenediamine-N,N′-diacetic acid]
[3]; 14 of 15 cycles with mangafodipir pretreatment, accumulated 1275 mg/m^2 oxaliplatin
  neurotoxic symptoms: No neurotoxic symptoms were detected
[3]; during chemotherapy cycles
  neutropenia: Neutropenia did not occur
[4]
  Mn content in the pancreas: 5.54 ± 0.45 µmol/kg
[5]
  fetal skeletal abnormalities: caused fetal skeletal abnormalities in rats
[6]
  administered manganese released: about 80%
[7]; after 2 hours
  Mn content of the pancreas relative to basal value: approximately 10 times
[7]; after 24 hours
  Mn content of the pancreas relative to basal value: about 5 times
Pig heart
  protection against ischemia-reperfusion-induced myocardial infarction: does not protect the pig heart against ischemia-reperfusion-induced myocardial infarction
Human U1810 NSCLC cells
  IC50: 633 µM
White blood cells (WBC); 12.5 mg/kg oxaliplatin plus 1 mg/kg mangafodipir iv
  fall in WBC: around 50%
White blood cells (WBC); 12.5 mg/kg oxaliplatin plus 10 mg/kg mangafodipir iv
  fall in WBC: around 50%
[8]; iv 0.25 ml, 2.59 μmol Mn (mangafodipir) or 2.52 μmol Mn (calmangafodipir) injected
  Mn recovered in 0-24 h urine: 0.60 ± 0.04 µmol
[8]; iv, basal excretion subtracted
  Mn in 0-24 h urine as percentage of the injected dose: 23.1±1.4%

## Cc1ncc(COP(=O)(O)O)c(CN(CCN(CC(=O)O)Cc2c(COP(=O)(O)O)cnc(C)c2O)CC(=O)O)c1O [fodipir, N,N′-bis-(pyridoxal-5-phosphate)-ethylenediamine-N,N′-diacetic acid]
[2]
  cytotoxic activity relative to mangafodipir: about 20 times
[9]; higher affinity of zinc
  affinity of zinc relative to manganese for the chelator: about 1000 times
[9]; lower affinity of calcium
  affinity of calcium relative to manganese for the chelator: about 10^6 times
  affinity of calcium relative to zinc for the chelator: about 10^9 times

## Cc1ncc(CO)c(CN(CCN(CC(=O)[O-])Cc2c(CO)cnc(C)c2O)CC(=O)[O-])c1O.[Zn+2] [ZnPLED]
[2]
  cytotoxic activity: Neither ZnDPDP, ZnPLED nor CaCl2 displayed any cytotoxic activity at all
[9]; higher stability
  stability of complex relative to manganese counterpart: 1000 times

## Cc1ncc(CO)c(CN(CCN(CC(=O)O)Cc2c(CO)cnc(C)c2O)CC(=O)O)c1O [MnPLED, N,N′-dipyridoxyl ethylenediamine-N,N′-diacetic acid]
[2]
  cytotoxic activity relative to mangafodipir: ~10 times
Pig heart
  protection against ischemia-reperfusion-induced myocardial infarction: significantly reduced myocardial infarct size
